Where a SMILES comes first, the peptide text is derived from it. [ ]: non-standard residue; d: D form. dPhe(4-Cl) = N[C@H](Cc1ccc(Cl)cc1)C(=O)O; d2Nal = N[C@H](Cc1ccc2ccccc2c1)C(=O)O; dCit = NC(=O)NCCC[C@@H](N)C(=O)O; d3Pal = N[C@H](Cc1cccnc1)C(=O)O
Experiment: Cetrorelix measurement in maternal and fetal brain (nano-HPLC-HRMS)
Format: in vivo, mouse
Settings: dams i.p. 0.5 mg/Kg E16.5-E18.5; brains at E19.5
Protocol: Timed-pregnant adult (3-4 months) C57BL6/J (B6) (Charles River, USA) dams were injected daily intraperitoneally (i.p.) from embryonic day (E) 16.5 to 18.5 with 200 μL of a solution containing respectively: 1) 0.01M phosphate buffered saline (PBS, pH 7.4, prenatal control-treated), 2) PBS with 0.5 mg Kg^−1 of the GnRH antagonist, cetrorelix acetate (Sigma, Cat #C5249; GnRH antag-treated). At E19.5, dams were anesthetized with ketamine/xylazine, and sacrificed by cervical dislocation. Dams' brains and fetal brains were collected, snap-frozen in liquid nitrogen and stored at −80° C. until nano-HPLC-HRMS experiments.
Murine maternal and embryo brain samples were prepared adapting the procedure described (Wang et al., 2014, Vol. 1345: 98-106). Briefly, the brains were weighted, homogenized with 1% formic acid in cold acetonitrile and incubated for 15 minutes at −20° C. After centrifugation, the supernatant was freeze-dried and reconstituted with 3% acetic acid and 1% trifluoroacetic acid (TFA). all of the solvents were from Sigma-Aldrich Merck (Milan, Italy). […]
The column was equipped with a nanoESl source and the capillary voltage was 2000 V in positive ion mode. […] High resolution spectra were acquired with a resolution of 60000 (FWHM) and the mass accuracy of recorded ions (vs. calculated) was ±5 ppm units (without internal calibration).

## CC(=O)N[C@H](Cc1ccc2ccccc2c1)C(=O)N[C@H](Cc1ccc(Cl)cc1)C(=O)N[C@H](Cc1cccnc1)C(=O)N[C@@H](CO)C(=O)N[C@@H](Cc1ccc(O)cc1)C(=O)N[C@H](CCCNC(N)=O)C(=O)N[C@@H](CC(C)C)C(=O)N[C@@H](CCCNC(=N)N)C(=O)N1CCC[C@H]1C(=O)N[C@H](C)C(N)=O [Cetrorelix acetate, Ac-D-2Nal-D-Phe(4-Cl)-D-3Pal-Ser-Tyr-D-Cit-Leu-Arg-Pro-D-Ala-NH2] (Ac-[d2Nal][dPhe(4-Cl)][d3Pal]SY[dCit]LRP[dA]-NH2)
  access to maternal and fetal brain: can access the maternal as well as the fetal brain

From patent US12208130B2, “Treatment of women affected with polycystic ovary syndrome” (INSTITUT NATIONAL DE LA SANTE ET DE LA RECHERCHE MEDICALE …, priority 2017, dated 2025)
